Legend:
[1] = system: S. enteritidis; assay: Spot Test, antagonistic activity of isolated signal peptides; format: cell-based; details: isolated signal peptide
Method: (§1) The antagonistic activity of the bacteriocins produced when using the signal peptide and an inducer strain of bacteria against C. jejuni and S. enteritidis was assessed using a Spot Test. The steps included taking various concentrations of pure preparation (μg/ml) of the bacteriocin in approximately 10 microliters of volume plated onto blood-supplemented Campylobacter agar or Nutrient agar (MPA or Meta Peptone Agar) previously seeded with cells of target bacteria. Plates containing cultures of C. jejuni were grown at about 42° C., under microaerobic conditions. Plates containing S. enteritidis were grown at about 37° C. under aerobic conditions. Activity of the bacteriocin was expressed in arbitrary units (AU) per one milliliter of the preparation at which a visible zone of inhibition of the growth of culture appears (Henderson et al., Archives of Biochemistry and Biophysics, Volume 295, 5-12, 1992; herein incorporated by reference). Specific activity can also expressed as arbitrary units per milligram of pure bacteriocin.
(§2) Its activity was about 200 AU/ml and its molecular weight was about 2.5 kDa, as determined by SDS-PAGE electrophoresis. The isoelectric point (pI) was about 7.9 (FIGS. 1A and 1B).
(§3) Its molecular weight was about 3.1 kDa as measured by SDS-PAGE and the isoelectric point (pI) was about 8.1 (FIGS. 2A and 2B).
(§4) Its molecular weight was about 2.1 kDa as determined by SDS-PAGE electrophoresis and its isoelectric point was about 8.9 (FIGS. 3A and 3B).

[2] = system: Enterococcus faecium LWP 50-52; assay: Influence of signal peptide on bacteriocin 50-52 production, flask culture (fraction protein at 215 nm, activity by spot-test against C. jejuni and S. enteritidis); format: cell-based
[3] = Isoelectric point by isoelectrofocusing; format: physicochemical
Source text: FIGS. 1A and 1B are photographs showing the direct detection of signal peptide and bacteriocin OR-7 after SDS-PAGE (A) and isoelectrofocusing (B). […] In FIG. 1A Lane 1-Molecular Mass Markers LMW Range 2,100-12,500 (Amersham Pharmacia Biotech): 2,100; 5,780; 8,400; 12,500 Da. […] Lane 3 contained pI standards (Protein Test Mixture, I Marker Proteins, Serva): 10.0, 9.2, 8.1, 6.9, 5.5, 4.3.
FIGS. 2A and 2B are photographs showing direct detection of signal peptide and bacteriocin 50-52 after SDS-PAGE (A) and isoelectrofocusing (B). […] Lane 3 contained pI standards (Protein Test Mixture, I Marker Proteins, Serva): 10.0, 8.1, 7.9, 6.4, 5.5, 4.3, 4.1, and 3.8.
FIGS. 3A and 3B are photographs showing the direct detection of signal peptide and bacteriocin 760 after SDS-PAGE(A) and isoelectrofocusing (B). […] Lane 3 contained pI standards (Protein Test Mixture, I Marker Proteins, Serva): 10.0, 8.1, 7.9, 6.4, 5.5, 4.3, 4.1, and 3.8.
At the end of 14 hours the supernatant from the cultures was placed into 500 ml centrifuge flasks with about one milliliter of regenerated Sepharose SP Fast Flow (v/v 500: 1). This was incubated for approximately 1 hour at room temperature with stirring. The suspension was then washed with about 100 ml of a 0.2 M TRIS-HCl buffer pH approximately 6.4. The bacteriocins were eluted by centrifugation with about 100 ml of approximately 0.2 M K2HPO4, pH of about 5.8 at about 7,000×g for approximately 10 minutes. Antagonistic activity of the bacteriocin fractions against C. jejuni and S. enteritidis was assessed using a Spot Test as described above. The level of purity of the bacteriocin fractions was determined by SDS-PAGE. The isoelectric points of the fractions were determined by isoelectric focusing. Concentrations of protein for all bacteriocin fractions were determined at 215 nm using a spectrophotometer.

[4] = system: C. jejuni; assay: Spot Test, antagonistic activity of isolated signal peptides; format: cell-based, Campylobacter jejuni; details: isolated signal peptide
Method: as §1, §2, §3, §4

[5] = LWP 50-52 + LWP 320, peptide 0.001 mg/ml
[6] = LWP 50-52 + LWP 320, peptide 0.001 mg/ml added after about 2 hours
[7] = LWP 50-52 + LWP 320, peptide 0.001 mg/ml added after about 4 hours
[8] = LWP 50-52 + LWP 320, peptide 0.001 mg/ml added after about 6 hours
[9] = LWP 50-52 + LWP 320, peptide 0.01 mg/ml
[10] = LWP 50-52 + LWP 320, peptide 0.01 mg/ml added after about 2 hours
[11] = LWP 50-52 + LWP 320, peptide 0.01 mg/ml added after about 4 hours
[12] = LWP 50-52 + LWP 320, peptide 0.01 mg/ml added after about 6 hours
[13] = LWP 50-52 + LWP 320, peptide 0.1 mg/ml
[14] = LWP 50-52 + LWP 320, peptide 0.1 mg/ml added after about 2 hours
[15] = LWP 50-52 + LWP 320, peptide 0.1 mg/ml added after about 4 hours
[16] = LWP 50-52 + LWP 320, peptide 0.1 mg/ml added after about 6 hours
[17] = LWP 50-52, no inducer, peptide 0.001 mg/ml
[18] = LWP 50-52, no inducer, peptide 0.001 mg/ml added after about 2 hours
[19] = LWP 50-52, no inducer, peptide 0.001 mg/ml added after about 4 hours
[20] = LWP 50-52, no inducer, peptide 0.001 mg/ml added after about 6 hours
[21] = LWP 50-52, no inducer, peptide 0.01 mg.ml added after about 4 hours
[22] = LWP 50-52, no inducer, peptide 0.01 mg.ml added after about 6 hours
[23] = LWP 50-52, no inducer, peptide 0.01 mg/ml
[24] = LWP 50-52, no inducer, peptide 0.01 mg/ml added after about 2 hours
[25] = LWP 50-52, no inducer, peptide 0.1 mg/ml
[26] = LWP 50-52, no inducer, peptide 0.1 mg/ml added after about 2 hours
[27] = LWP 50-52, no inducer, peptide 0.10 mg/ml added after about 4 hours
[28] = LWP 50-52, no inducer, peptide 0.10 mg/ml added after about 6 hours

## TNVTKSWWVLAGCNQVVASNCNCGNVKGLT (listed as Enterococcus faecium) [LWP 50-52 Signal Peptide, signal peptide isolated from Enterococcus faecium LWP 50-52, stimulates bacteriocin 50-52 production]
[1]
  antagonistic activity: did not possess antagonistic activity
[2]; [5]
  Activity: 819,200 AU/ml
  Protein Concentration: 0.25 mg/mL
  Protein increase vs. Control: 1
  Specific Activity: 3,276,800 AU/mg
  mg protein/liter: 82.5 mg protein/liter
[2]; [6]
  Activity: 819,200 AU/ml
  Protein Concentration: 0.25 mg/mL
  Protein increase vs. Control: 1
  Specific Activity: 3,276,800 AU/mg
  mg protein/liter: 82.5 mg protein/liter
[2]; [7]
  Activity: 819,200 AU/ml
  Protein Concentration: 0.25 mg/mL
  Protein increase vs. Control: 1
  Specific Activity: 3,276,800 AU/mg
  mg protein/liter: 82.5 mg protein/liter
[2]; [8]
  Activity: 819,200 AU/ml
  Protein Concentration: 0.25 mg/mL
  Protein increase vs. Control: 1
  Specific Activity: 3,276,800 AU/mg
  mg protein/liter: 82.5 mg protein/liter
[2]; [9]
  Activity: 1,638,400 AU/ml
  Protein Concentration: 1.0 mg/mL
  Protein increase vs. Control: 4
  Specific Activity: 1,638,400 AU/mg
  mg protein/liter: 330.0 mg protein/liter
[2]; [10]
  Activity: 3,276,800 AU/ml
  Protein Concentration: 1.07 mg/mL
  Protein increase vs. Control: 4.28
  Specific Activity: 3,062,429 AU/mg
[2]; LWP 50-52 + LWP 320, peptide 0.01 mg/ml added after about 2 hours, listed as LWP 320 Signal Peptide
  mg protein/liter: 353.1 mg protein/liter
[2]; LWP 50-52 + LWP 320, peptide 0.01 mg/ml added after about 2 hours, listed as signal peptide from LWP 50-52
  mg protein/liter: about 353.1 mg protein/liter
[2]; [11]
  Activity: 1,638,400 AU/ml
  Protein Concentration: 1.0 mg/mL
  Protein increase vs. Control: 4
  Specific Activity: 1,638,400 AU/mg
  mg protein/liter: 330.0 mg protein/liter
[2]; [12]
  Activity: 1,638,400 AU/ml
  Protein Concentration: 1.0 mg/mL
  Protein increase vs. Control: 4
  Specific Activity: 1,638,400 AU/mg
  mg protein/liter: 330.0 mg protein/liter
[2]; [13]
  Activity: 819,200 AU/ml
  Protein Concentration: 0.25 mg/mL
  Protein increase vs. Control: 1
  Specific Activity: 3,276,800 AU/mg
  mg protein/liter: 82.5 mg protein/liter
[2]; [14]
  Activity: 819,200 AU/ml
  Protein Concentration: 0.25 mg/mL
  Protein increase vs. Control: 1
  Specific Activity: 3,276,800 AU/mg
  mg protein/liter: 82.5 mg protein/liter
[2]; [15]
  Activity: 819,200 AU/ml
  Protein Concentration: 0.25 mg/mL
  Protein increase vs. Control: 1
  Specific Activity: 3,276,800 AU/mg
  mg protein/liter: 82.5 mg protein/liter
[2]; [16]
  Activity: 819,200 AU/ml
  Protein Concentration: 0.25 mg/mL
  Protein increase vs. Control: 1
  Specific Activity: 3,276,800 AU/mg
  mg protein/liter: 82.5 mg protein/liter
[2]; [17]
  Activity: 819,200 AU/ml
  Protein Concentration: 0.25 mg/mL
  Protein increase vs. Control: 1
  Specific Activity: 3,276,800 AU/mg
  mg protein/liter: 82.5 mg protein/liter
[2]; [18]
  Activity: 819,200 AU/ml
  Protein Concentration: 0.25 mg/mL
  Protein increase vs. Control: 1
  Specific Activity: 3,276,800 AU/mg
  mg protein/liter: 82.5 mg protein/liter
[2]; [19]
  Activity: 819,200 AU/ml
  Protein Concentration: 0.25 mg/mL
  Protein increase vs. Control: 1
  Specific Activity: 3,276,800 AU/mg
  mg protein/liter: 82.5 mg protein/liter
[2]; [20]
  Activity: 819,200 AU/ml
  Protein Concentration: 0.25 mg/mL
  Protein increase vs. Control: 1
  Specific Activity: 3,276,800 AU/mg
  mg protein/liter: 82.5 mg protein/liter
[2]; [21]
  Activity: 819,200 AU/ml
  Protein Concentration: 0.27 mg/mL
  Protein increase vs. Control: 1.08
  Specific Activity: 3,034,074 AU/mg
  mg protein/liter: 89.1 mg protein/liter
[2]; [22]
  Activity: 819,200 AU/ml
  Protein Concentration: 0.27 mg/mL
  Protein increase vs. Control: 1.08
  Specific Activity: 3,034,074 AU/mg
  mg protein/liter: 89.1 mg protein/liter
[2]; [23]
  Activity: 819,200 AU/ml
  Protein Concentration: 0.27 mg/mL
  Protein increase vs. Control: 1.08
  Specific Activity: 3,034,074 AU/mg
  mg protein/liter: 89.1 mg protein/liter
[2]; [24]
  Activity: 819,200 AU/ml
  Protein Concentration: 0.31 mg/mL
  Protein increase vs. Control: 1.24
  Specific Activity: 2,642,580 AU/mg
  mg protein/liter: 102.3 mg protein/liter
[2]; [25]
  Activity: 819,200 AU/ml
  Protein Concentration: 0.25 mg/mL
  Protein increase vs. Control: 1
  Specific Activity: 3,276,800 AU/mg
  mg protein/liter: 82.5 mg protein/liter
[2]; [26]
  Activity: 819,200 AU/ml
  Protein Concentration: 0.27 mg/mL
  Protein increase vs. Control: 1.08
  Specific Activity: 3,034,074 AU/mg
  mg protein/liter: 89.1 mg protein/liter
[2]; [27]
  Activity: 819,200 AU/ml
  Protein Concentration: 0.27 mg/mL
  Protein increase vs. Control: 1.08
  Specific Activity: 3,034,074 AU/mg
  mg protein/liter: 89.1 mg protein/liter
[2]; [28]
  Activity: 819,200 AU/ml
  Protein Concentration: 0.26 mg/mL
  Protein increase vs. Control: 1.04
  Specific Activity: 3,150,769 AU/mg
  mg protein/liter: 85.8 mg protein/liter
[3]
  isoelectric point (pI): about 8.1
[4]
  antagonistic activity: did not possess antagonistic activity
